Common to all, as to format: biochemical, human/mammalian
Experiment [1] has as its target S6K1 (Homo sapiens, UniProt P23443). As to the kind of experiment: Kinase panel: S6K1. The settings on record: compound at 10 μM, read-out: % of activity respect of the control. As for the experimental part: (§1) The DDU kinase-focused compound set contains lead-like scaffolds that are designed to target protein kinases; they have kinase hinge binding motifs. Four of the 1H-imidazopyrazinones were screened against a human/mammalian kinase panel at the University of Dundee (http://www.kinase-screen.mrc.ac.uk) at a concentration of 10 μM. At the time of testing the panel contained 79 mammalian kinases selected to provide a broad coverage of the mammalian kinome (∼500 kinases in the human genome).[3] None of the compounds were active against any of the kinases at 10 μM.

In experiment [2] the target is PKBb (Homo sapiens, UniProt P31751). Nature of the experiment: Kinase panel: PKBb. The settings on record: compound at 10 μM, read-out: % of activity respect of the control. As for the experimental part: as §1
Experiment [3] addresses CAMK1 (Homo sapiens, UniProt Q14012). As to the kind of experiment: Kinase panel: CAMK1. The settings on record: compound at 10 μM, read-out: % of activity respect of the control. The procedure: as §1
Experiment [4] concerns the target PIM1 (Homo sapiens, UniProt P11309). As to the kind of experiment: Kinase panel: PIM1. The settings on record: compound at 10 μM, read-out: % of activity respect of the control. As for the experimental part: as §1
The target of experiment [5] is P38b MAPK (Homo sapiens, UniProt Q15759). As to the kind of experiment: Kinase panel: P38b MAPK. As to conditions: compound at 10 μM, read-out: % of activity respect of the control. As for the experimental part:
as §1

Experiment [6] deals with MARK3 (Homo sapiens, UniProt P27448). Nature of the experiment: Kinase panel: MARK3. As to conditions: compound at 10 μM, read-out: % of activity respect of the control. The procedure: as §1
For experiment [7], the target named is CSK (Homo sapiens, UniProt P41240). As to the kind of experiment: Kinase panel: CSK. As to conditions: compound at 10 μM, read-out: % of activity respect of the control. As for the experimental part:
as §1

Experiment [8] concerns AMPK. Nature of the experiment: Kinase panel: AMPK. As to conditions: compound at 10 μM. The procedure: as §1
The target in experiment [9] is PKA (Homo sapiens, UniProt P17612). As to the kind of experiment: Kinase panel: PKA. The settings on record: compound at 10 μM, read-out: % of activity respect of the control. The procedure:
as §1

Experiment [10] has as its target PIM3 (Homo sapiens, UniProt Q86V86). As to the kind of experiment: Kinase panel: PIM3. The settings on record: compound at 10 μM, read-out: % of activity respect of the control. The procedure: as §1
Experiment [11] addresses T1, ERK8 (Homo sapiens, UniProt Q8TD08).
T1 sequence (Q8TD08 1-544): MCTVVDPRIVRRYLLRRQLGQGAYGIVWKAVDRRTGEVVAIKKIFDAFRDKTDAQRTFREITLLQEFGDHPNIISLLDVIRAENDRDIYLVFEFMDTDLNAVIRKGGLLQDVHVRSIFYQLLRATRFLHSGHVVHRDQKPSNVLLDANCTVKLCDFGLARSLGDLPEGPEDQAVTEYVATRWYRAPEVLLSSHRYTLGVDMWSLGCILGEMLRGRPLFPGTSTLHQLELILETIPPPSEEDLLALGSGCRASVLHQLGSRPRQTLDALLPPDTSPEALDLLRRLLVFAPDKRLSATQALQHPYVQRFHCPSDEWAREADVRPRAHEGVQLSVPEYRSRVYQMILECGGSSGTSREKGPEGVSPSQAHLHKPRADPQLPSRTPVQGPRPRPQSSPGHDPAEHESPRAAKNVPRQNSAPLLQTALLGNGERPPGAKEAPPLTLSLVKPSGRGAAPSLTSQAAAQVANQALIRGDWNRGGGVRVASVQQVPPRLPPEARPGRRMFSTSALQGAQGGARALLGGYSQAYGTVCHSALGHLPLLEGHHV
As to the kind of experiment: Kinase panel: ERK8. As to conditions: compound at 10 μM, read-out: % of activity respect of the control. As for the experimental part: as §1

For experiment [12], the target named is ERK2 (Homo sapiens, UniProt P28482). Nature of the experiment: Kinase panel: ERK2. As to conditions: compound at 10 μM, read-out: % of activity respect of the control. The procedure:
as §1

In experiment [13] the target is T2, TBK1 (Homo sapiens, UniProt Q9UHD2).
T2 sequence (Q9UHD2 1-729): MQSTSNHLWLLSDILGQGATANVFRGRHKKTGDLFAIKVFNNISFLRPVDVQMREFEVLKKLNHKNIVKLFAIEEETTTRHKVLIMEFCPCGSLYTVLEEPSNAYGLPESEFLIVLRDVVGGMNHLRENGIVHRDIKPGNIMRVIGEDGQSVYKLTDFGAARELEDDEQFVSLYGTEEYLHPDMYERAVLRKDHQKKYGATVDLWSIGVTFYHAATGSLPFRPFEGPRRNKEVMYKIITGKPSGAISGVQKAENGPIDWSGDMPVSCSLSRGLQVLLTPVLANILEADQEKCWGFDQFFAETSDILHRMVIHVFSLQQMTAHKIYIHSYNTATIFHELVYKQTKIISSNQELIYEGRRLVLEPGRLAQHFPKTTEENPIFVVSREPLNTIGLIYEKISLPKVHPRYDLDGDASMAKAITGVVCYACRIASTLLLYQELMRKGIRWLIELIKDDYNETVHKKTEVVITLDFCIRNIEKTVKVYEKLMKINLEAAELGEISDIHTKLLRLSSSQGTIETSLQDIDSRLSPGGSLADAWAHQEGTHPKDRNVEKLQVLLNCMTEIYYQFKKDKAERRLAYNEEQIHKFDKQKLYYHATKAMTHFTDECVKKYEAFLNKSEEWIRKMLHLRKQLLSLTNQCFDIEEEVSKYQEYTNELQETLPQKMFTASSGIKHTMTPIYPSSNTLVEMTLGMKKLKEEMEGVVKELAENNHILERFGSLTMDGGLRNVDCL
Nature of the experiment: Kinase panel: TBK1. As to conditions: compound at 10 μM, read-out: % of activity respect of the control. The procedure:
as §1

The target of experiment [14] is VEG-FR (Homo sapiens, UniProt P17948). As to the kind of experiment: Kinase panel: VEG-FR. The settings on record: compound at 10 μM, read-out: % of activity respect of the control. As for the experimental part: as §1
The target of experiment [15] is SYK (Homo sapiens, UniProt P43405). Nature of the experiment: Kinase panel: SYK. The settings on record: compound at 10 μM, read-out: % of activity respect of the control. The procedure: as §1
For experiment [16], the target named is MELK (Homo sapiens, UniProt Q14680). Nature of the experiment: Kinase panel: MELK. As to conditions: compound at 10 μM, read-out: % of activity respect of the control. As for the experimental part: as §1

Chain of S6K1 (P23443 whole entry): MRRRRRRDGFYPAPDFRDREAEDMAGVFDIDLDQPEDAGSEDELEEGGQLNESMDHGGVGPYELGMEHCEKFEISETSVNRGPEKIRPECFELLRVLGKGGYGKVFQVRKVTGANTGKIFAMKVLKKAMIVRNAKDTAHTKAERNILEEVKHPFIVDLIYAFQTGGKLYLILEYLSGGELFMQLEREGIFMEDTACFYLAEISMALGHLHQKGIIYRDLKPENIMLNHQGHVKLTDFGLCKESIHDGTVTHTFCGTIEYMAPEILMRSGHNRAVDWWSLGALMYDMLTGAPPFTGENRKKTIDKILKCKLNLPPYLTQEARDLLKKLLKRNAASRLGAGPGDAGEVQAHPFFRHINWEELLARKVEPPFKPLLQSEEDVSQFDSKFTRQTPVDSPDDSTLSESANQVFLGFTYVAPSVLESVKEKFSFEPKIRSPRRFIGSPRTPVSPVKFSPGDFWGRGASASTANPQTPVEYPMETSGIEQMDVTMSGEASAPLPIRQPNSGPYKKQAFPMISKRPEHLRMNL
Chain of VEG-FR (P17948 27-1338): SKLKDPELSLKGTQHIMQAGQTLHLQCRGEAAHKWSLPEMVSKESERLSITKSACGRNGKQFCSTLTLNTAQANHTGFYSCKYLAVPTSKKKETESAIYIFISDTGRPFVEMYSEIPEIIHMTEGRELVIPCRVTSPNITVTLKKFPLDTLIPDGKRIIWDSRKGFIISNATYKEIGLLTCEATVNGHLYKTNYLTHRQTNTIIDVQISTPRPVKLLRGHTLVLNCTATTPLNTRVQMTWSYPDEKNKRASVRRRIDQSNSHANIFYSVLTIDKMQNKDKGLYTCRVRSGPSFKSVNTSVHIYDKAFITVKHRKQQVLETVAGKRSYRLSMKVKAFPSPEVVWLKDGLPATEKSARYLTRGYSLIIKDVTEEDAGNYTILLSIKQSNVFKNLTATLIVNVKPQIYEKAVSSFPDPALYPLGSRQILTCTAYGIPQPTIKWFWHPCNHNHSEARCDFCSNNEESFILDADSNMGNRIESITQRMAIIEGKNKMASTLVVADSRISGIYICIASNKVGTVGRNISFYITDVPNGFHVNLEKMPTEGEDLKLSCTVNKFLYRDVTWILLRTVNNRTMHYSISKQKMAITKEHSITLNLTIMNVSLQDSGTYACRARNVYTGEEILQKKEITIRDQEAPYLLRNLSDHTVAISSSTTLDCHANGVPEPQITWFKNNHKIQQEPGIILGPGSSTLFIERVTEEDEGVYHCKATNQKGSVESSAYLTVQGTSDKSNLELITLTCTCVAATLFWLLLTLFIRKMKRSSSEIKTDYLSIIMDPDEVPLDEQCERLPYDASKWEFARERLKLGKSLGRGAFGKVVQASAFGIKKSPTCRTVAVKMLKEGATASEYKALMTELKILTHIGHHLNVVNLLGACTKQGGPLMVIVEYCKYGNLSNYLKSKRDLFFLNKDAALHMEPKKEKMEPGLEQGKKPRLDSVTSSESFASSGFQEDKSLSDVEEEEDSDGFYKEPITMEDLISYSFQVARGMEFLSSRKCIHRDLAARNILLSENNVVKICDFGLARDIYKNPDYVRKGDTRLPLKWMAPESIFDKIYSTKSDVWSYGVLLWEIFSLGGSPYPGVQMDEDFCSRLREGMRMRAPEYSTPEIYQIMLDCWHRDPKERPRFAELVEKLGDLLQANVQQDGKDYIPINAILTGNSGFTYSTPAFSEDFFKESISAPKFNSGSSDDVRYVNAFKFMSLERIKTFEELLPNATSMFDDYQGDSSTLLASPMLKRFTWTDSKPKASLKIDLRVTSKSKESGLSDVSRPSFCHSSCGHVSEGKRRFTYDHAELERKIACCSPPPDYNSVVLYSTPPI
Chain of CSK (P41240 whole entry): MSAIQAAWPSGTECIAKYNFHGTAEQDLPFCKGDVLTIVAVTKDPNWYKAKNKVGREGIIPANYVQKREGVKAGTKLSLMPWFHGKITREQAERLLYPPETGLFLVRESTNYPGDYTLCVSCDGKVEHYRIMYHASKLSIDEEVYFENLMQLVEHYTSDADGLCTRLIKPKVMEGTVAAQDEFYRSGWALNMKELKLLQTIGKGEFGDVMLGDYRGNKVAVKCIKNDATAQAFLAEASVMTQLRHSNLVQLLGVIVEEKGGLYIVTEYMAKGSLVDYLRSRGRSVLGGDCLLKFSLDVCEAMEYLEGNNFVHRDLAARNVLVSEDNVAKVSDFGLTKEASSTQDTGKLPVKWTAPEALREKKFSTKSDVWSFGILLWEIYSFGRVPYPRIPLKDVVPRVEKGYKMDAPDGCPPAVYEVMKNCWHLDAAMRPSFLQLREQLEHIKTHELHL
Chain of P38b MAPK (Q15759 whole entry): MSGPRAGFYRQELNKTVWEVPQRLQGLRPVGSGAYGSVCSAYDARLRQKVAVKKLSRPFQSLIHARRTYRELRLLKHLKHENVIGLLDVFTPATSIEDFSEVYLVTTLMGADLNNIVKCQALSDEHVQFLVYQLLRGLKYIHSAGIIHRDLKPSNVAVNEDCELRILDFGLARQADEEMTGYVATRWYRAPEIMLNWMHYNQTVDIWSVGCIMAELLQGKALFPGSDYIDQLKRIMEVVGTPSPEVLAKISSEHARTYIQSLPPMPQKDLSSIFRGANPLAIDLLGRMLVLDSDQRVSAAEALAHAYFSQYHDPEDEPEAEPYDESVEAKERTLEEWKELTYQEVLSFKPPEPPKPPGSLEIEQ
Chain of MARK3 (P27448 whole entry): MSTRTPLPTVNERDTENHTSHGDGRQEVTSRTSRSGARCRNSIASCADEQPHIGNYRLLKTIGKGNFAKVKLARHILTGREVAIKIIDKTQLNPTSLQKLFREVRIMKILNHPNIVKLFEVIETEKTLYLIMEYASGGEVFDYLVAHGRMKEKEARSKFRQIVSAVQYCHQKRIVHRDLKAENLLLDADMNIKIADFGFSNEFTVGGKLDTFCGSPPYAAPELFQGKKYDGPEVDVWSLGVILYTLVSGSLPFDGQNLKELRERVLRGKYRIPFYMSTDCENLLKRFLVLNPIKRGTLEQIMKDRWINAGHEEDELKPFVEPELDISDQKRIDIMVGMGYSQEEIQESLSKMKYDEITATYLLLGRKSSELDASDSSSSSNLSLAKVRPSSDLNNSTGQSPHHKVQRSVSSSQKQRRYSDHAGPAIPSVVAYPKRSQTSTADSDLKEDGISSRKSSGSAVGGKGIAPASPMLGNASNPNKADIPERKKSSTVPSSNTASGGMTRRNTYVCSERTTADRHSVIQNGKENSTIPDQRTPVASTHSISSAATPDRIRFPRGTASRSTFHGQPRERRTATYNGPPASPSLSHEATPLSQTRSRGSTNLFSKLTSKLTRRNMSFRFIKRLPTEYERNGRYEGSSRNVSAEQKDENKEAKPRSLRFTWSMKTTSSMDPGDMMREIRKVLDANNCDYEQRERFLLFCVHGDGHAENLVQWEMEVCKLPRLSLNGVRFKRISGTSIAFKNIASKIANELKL
Chain of ERK2 (P28482 whole entry): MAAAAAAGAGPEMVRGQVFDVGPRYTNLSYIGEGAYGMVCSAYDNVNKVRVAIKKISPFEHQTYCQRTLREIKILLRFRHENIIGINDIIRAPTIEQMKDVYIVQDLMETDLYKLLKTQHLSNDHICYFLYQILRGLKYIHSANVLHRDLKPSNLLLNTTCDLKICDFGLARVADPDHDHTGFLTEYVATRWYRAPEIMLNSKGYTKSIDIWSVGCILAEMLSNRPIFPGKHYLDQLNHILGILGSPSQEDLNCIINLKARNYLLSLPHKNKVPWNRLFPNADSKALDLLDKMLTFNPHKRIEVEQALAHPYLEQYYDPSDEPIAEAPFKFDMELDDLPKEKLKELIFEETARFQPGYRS
Chain of CAMK1 (Q14012 whole entry): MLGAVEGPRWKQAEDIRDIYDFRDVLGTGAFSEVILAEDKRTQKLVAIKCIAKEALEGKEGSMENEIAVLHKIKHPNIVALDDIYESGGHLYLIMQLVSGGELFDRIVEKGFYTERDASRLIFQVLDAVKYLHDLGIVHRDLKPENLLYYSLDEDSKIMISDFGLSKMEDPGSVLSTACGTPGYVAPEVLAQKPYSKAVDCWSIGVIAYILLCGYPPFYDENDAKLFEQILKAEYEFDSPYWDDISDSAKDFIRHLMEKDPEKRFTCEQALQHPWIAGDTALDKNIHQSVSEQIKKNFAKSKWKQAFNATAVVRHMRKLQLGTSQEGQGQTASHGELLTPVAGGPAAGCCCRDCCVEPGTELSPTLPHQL
Chain of PIM1 (P11309 whole entry): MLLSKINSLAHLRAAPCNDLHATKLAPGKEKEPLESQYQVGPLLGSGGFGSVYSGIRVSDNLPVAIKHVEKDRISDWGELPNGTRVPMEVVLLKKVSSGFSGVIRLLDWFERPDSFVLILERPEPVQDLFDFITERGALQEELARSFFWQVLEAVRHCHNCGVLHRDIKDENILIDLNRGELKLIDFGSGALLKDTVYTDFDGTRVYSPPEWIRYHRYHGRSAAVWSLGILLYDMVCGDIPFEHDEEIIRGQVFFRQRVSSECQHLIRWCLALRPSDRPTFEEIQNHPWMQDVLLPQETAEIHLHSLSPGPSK

For the compound `CC(c1ccccc1)n1c(=O)[nH]c2ncc(-c3ccc(F)cc3)nc21` (stereo not shown) [Compound 1], the remaining activity at 10 µM in [1] came to 81%; in experiment [2] it was 117%; in [3], 87%; in [4], 80%; in experiment [5], 84%; in experiment [6] it was 110%. In addition, the remaining activity at 10 µM amounted to 100% in [7]; 87% in [9]; 83% in experiment [10]; 73% in experiment [11]; 65% in experiment [12]; 95% in experiment [13]. Besides, the remaining activity at 10 µM is 117% in experiment [14], 97% in experiment [15] and 118% in experiment [16]. Also, the “% of activity respect of the control” value in [8] came out at 97%.

On to `O=c1[nH]c2ncc(-c3ccc(F)cc3)nc2n1CC1CC1` [Compound 10], for which the remaining activity at 10 µM in experiment [1] came out at 92%; in experiment [2], 120%; in experiment [3] it was 83%; in experiment [4], 79%; in experiment [5] it was 101%; in experiment [6] it was 97%. Further, the remaining activity at 10 µM in experiment [7] worked out at 93%; in [9], 93%; in experiment [10], 89%; in experiment [11] it was 70%; in experiment [12], 84%; in [13], 95%. The remaining activity at 10 µM in experiment [14] came out at 98%; in experiment [15], 98%; in [16], 125%. Also, the “% of activity respect of the control” value in experiment [8] turned out to be 94%.

For `O=c1[nH]c2ncc(-c3ccc(F)cc3)nc2n1C1CCCCC1` [Compound 12, 1-Cyclohexyl-6-(4-fluorophenyl)-1H-imidazo[4,5-b]pyrazin-2(3H)-one], the remaining activity at 10 µM in [1] is 97%; in experiment [2], 106%; in [3], 88%; in experiment [4], 82%; in [5], 122%; in [6], 98%. Besides, the remaining activity at 10 µM in experiment [7] was found to be 90%; in experiment [9], 95%; in [10], 90%; in [11], 80%; in [12], 41%; in experiment [13], 92%. The remaining activity at 10 µM in experiment [14] was 107%; in experiment [15] it was 100%; in experiment [16] it was 110%. Besides, the “% of activity respect of the control” value in experiment [8] is reported as 100%.

With `C[C@H](c1ccccc1)n1c(=O)[nH]c2ncc(-c3ccccc3)nc21` [Compound 14, (R)-6-Phenyl-1-(1-phenylethyl)-1H-imidazo[4,5-b]pyrazin-2(3H)-one], the remaining activity at 10 µM worked out at 65% in experiment [1]; 100% in experiment [2]; 72% in experiment [3]; 72% in experiment [4]; 95% in experiment [5]; 100% in experiment [6]. Besides, the remaining activity at 10 µM amounted to 77% in experiment [7]; 72% in [9]; 83% in [10]; 79% in experiment [11]; 121% in experiment [12]; 100% in experiment [13]. Also, the remaining activity at 10 µM came to 73% in experiment [14], 84% in [15] and 100% in experiment [16]. Besides, the “% of activity respect of the control” value in [8] stood at 95%.
